What follows are molecules tested on HBV (assay: HBV replication inhibition assay (BDNA assay) in HepG2.2.15 cells). Conditions: HBV replication assay (BDNA assay), HepG2.2.15 cells; read-out: DNA EC50.
Format: cell-based
Method in brief: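 HepG2.2.15 cells with stably integrated HBV were treated with serially diluted compounds at 0.5% DMSO for 6 days, with medium and compound refreshed at day 3. Encapsidated HBV DNA from DNase-treated supernatant was quantified by branched DNA assay. EC50 came from % inhibition versus DMSO, fitted non-linearly.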

| Structure (SMILES) | EC50 |
| --- | --- |
| C[C@@H]1Cc2nn3c(c2CN1C(=O)Nc1ccc(F)c(C(F)(F)F)c1)C(=O)N(C)OC(COCC(F)F)C3 (stereo in doubt) [Compound 126_D2, (4R*,9R)-4-((2,2-difluoroethoxy)methyl)-N-(4-fluoro-3-(trifluoromethyl)phenyl)-2,9-dimethyl-1-oxo-1,4,5,8,9,11-hexahydropyrido[4′,3′:3,4]pyrazolo[5,1-d][1,2,5]oxadiazepine-10(2H)-carboxamide] | 0.001 to 0.1 µM |
| C[C@@H]1Cc2nn3c(c2CN1C(=O)Nc1cc(Br)c(F)cc1F)C(=O)N(C)OC(COCC(F)F)C3 (single isomer, unassigned) [Compound 108_D2, (4R*,9R)—N-(5-bromo-2,4-difluorophenyl)-4-((2,2-difluoroethoxy)methyl)-2,9-dimethyl-1-oxo-1,4,5,8,9,11-hexahydropyrido[4′,3′:3,4]pyrazolo[5,1-d][1,2,5]oxadiazepine-10(2H)-carboxamide] | 0.001 to 0.1 µM |
| C[C@@H]1Cc2nn3c(c2CN1C(=O)Nc1ccc(F)c(C#N)c1)C(=O)N(C)OC(COCC(F)F)C3 (stereo in doubt) [Compound 124_D2, (4R*,9R)—N-(3-cyano-4-fluorophenyl)-4-((2,2-difluoroethoxy)methyl)-2,9-dimethyl-1-oxo-1,4,5,8,9,11-hexahydropyrido[4′,3′:3,4]pyrazolo[5,1-d][1,2,5]oxadiazepine-10(2H)-carboxamide] | 0.001 to 0.1 µM |

Same assay, conditions: Hepatitis B virus, HepG2.2.15, HBV replication assay (BDNA assay), HepG2.2.15 cells; read-out: DNA EC50

| Structure (SMILES) | EC50 |
| --- | --- |
| C[C@@H]1Cc2nn3c(c2CN1C(=O)Nc1ccc(F)c(C#N)c1)C(=O)N(C)OC(CN)C3 (single isomer, unassigned) [Compound 115_D1, (4S*,9R)-4-(aminomethyl)-N-(3-cyano-4-fluorophenyl)-2,9-dimethyl-1-oxo-1,4,5,8,9,11-hexahydropyrido[4′,3′:3,4]pyrazolo[5,1-d][1,2,5]oxadiazepine-10(2H)-carboxamide] | 0.001 to 0.1 µM |
| Cc1c(F)ccc(NC(=O)N2CCc3nn4c(c3C2)C(=O)N(C)OC(CO)C4)c1F (single isomer, unassigned) [Compound 142_E1, (S*)—N-(2,4-difluoro-3-methylphenyl)-4-(hydroxymethyl)-2-methyl-1-oxo-1,4,5,8,9,11-hexahydropyrido[4′,3′:3,4]pyrazolo[5,1-d][1,2,5]oxadiazepine-10(2H)-carboxamide] | 0.001 to 0.1 µM |
| CN1OC(CO)Cn2nc3c(c2C1=O)CN(C(=O)Nc1cccc(C(F)(F)F)c1)CC3 (stereo not drawn) [Compound 008, 4-(hydroxymethyl)-2-methyl-1-oxo-N-(3-(trifluoromethyl)phenyl)-1,4,5,8,9,11-hexahydropyrido[4′,3′:3,4]pyrazolo[5,1-d][1,2,5]oxadiazepine-10(2H)-carboxamide] | 0.001 to 0.1 µM |
| CN1OC(CO)Cn2nc3c(c2C1=O)CN(C(=O)Nc1ccc(Cl)c(Cl)c1F)CC3 (stereo not drawn) [Compound 024, N-(3,4-dichloro-2-fluorophenyl)-4-(hydroxymethyl)-2-methyl-1-oxo-1,4,5,8,9,11-hexahydropyrido[4′,3′:3,4]pyrazolo[5,1-d][1,2,5]oxadiazepine-10(2H)-carboxamide] | 0.001 to 0.1 µM |
| CN1OC(CN)Cn2nc3c(c2C1=O)CN(C(=O)Nc1ccc(F)c(Cl)c1)CC3 (stereo not drawn) [Compound 113, 4-(aminomethyl)-N-(3-chloro-4-fluoro-phenyl)-2-methyl-1-oxo-5,8,9,11-tetrahydro-4H-pyrido[2,3]pyrazolo[2,4-d][1,2,5]oxadiazepine-10-carboxamide] | 0.001 to 0.1 µM |
| CC(=O)NCC1Cn2nc3c(c2C(=O)N(C)O1)CN(C(=O)Nc1cc(Br)c(F)cc1F)CC3 (single isomer, unassigned) [Compound 174_E1, (S*)-4-(acetamidomethyl)-N-(5-bromo-2,4-difluorophenyl)-2-methyl-1-oxo-1,4,5,8,9,11-hexahydropyrido[4′,3′:3,4]pyrazolo[5,1-d][1,2,5]oxadiazepine-10(2H)-carboxamide] | 0.001 to 0.1 µM |
| C[C@@H]1Cc2nn3c(c2CN1C(=O)Nc1ccc(F)c(C(F)(F)F)c1)C(=O)N(C)N=C(COCC(F)F)C3 [Compound 238, (R)-4-((2,2-difluoroethoxy)methyl)-N-(4-fluoro-3-(trifluoromethyl)phenyl)-2,9-dimethyl-1-oxo-1,2,5,8,9,11-hexahydro-10H-pyrido[4′,3′:3,4]pyrazolo[5,1-d][1,2,5]triazepine-10-carboxamide] | 0.1 to 0.5 µM |
| C[C@@H]1Cc2nn3c(c2CN1C(=O)Nc1ccc(F)c(C#N)c1)C(=O)N(C)O[C@H](COCC(F)(F)F)C3 [Compound 210, (4S,9R)—N-(3-cyano-4-fluorophenyl)-2,9-dimethyl-1-oxo-4-((2,2,2-trifluoroethoxy)methyl)-1,4,5,8,9,11-hexahydropyrido[4′,3′:3,4]pyrazolo[5,1-d][1,2,5]oxadiazepine-10(2H)-carboxamide] | 0.001 to 0.1 µM |
| CNC(=O)C1Cn2nc3c(c2C(=O)N(C)O1)CN(C(=O)Nc1ccc(F)c(Cl)c1F)CC3 (stereo not drawn) [Compound 118, N10-(3-chloro-2,4-difluorophenyl)-N4,2-dimethyl-1-oxo-1,4,5,8,9,11-hexahydropyrido[4′,3′:3,4]pyrazolo[5,1-d][1,2,5]oxadiazepine-4,10(2H)-dicarboxamide] | 0.001 to 0.1 µM |
| CN1OC(COC(F)(F)F)Cn2nc3c(c2C1=O)CN(C(=O)Nc1ccc(F)c(Cl)c1)CC3 (stereo not drawn) [Compound 128, N-(3-chloro-4-fluorophenyl)-2-methyl-1-oxo-4-((trifluoromethoxy)methyl)-1,4,5,8,9,11-hexahydropyrido[4′,3′:3,4]pyrazolo[5,1-d][1,2,5]oxadiazepine-10(2H)-carboxamide] | 0.001 to 0.1 µM |
| CC1Cc2nn3c(c2CN1C(=O)Nc1cccc(Cl)c1)C(=O)N(C)OC(CO)C3 (stereo not drawn) [Compound 070, N-(3-chlorophenyl)-4-(hydroxymethyl)-2,9-dimethyl-1-oxo-5,8,9,11-tetrahydro-4H-pyrido[2,3]pyrazolo[2,4-d][1,2,5]oxadiazepine-10-carboxamide] | 0.001 to 0.1 µM |
| CC(=O)NCC1Cn2nc3c(c2C(=O)N(C)O1)CN(C(=O)Nc1ccc(F)c(C#N)c1F)CC3 (single isomer, unassigned) [Compound 167_E1, (S*)-4-(acetamidomethyl)-N-(3-cyano-2,4-difluorophenyl)-2-methyl-1-oxo-1,4,5,8,9,11-hexahydropyrido[4′,3′:3,4]pyrazolo[5,1-d][1,2,5]oxadiazepine-10(2H)-carboxamide] | 0.001 to 0.1 µM |
| CC1=NN(C)C(=O)c2c3c(nn2C1)CCN(C(=O)Nc1ccc(F)c(Cl)c1)C3 [Compound 232, N-(3-chloro-4-fluorophenyl)-2,4-dimethyl-1-oxo-1,2,5,8,9,11-hexahydro-10H-pyrido[4′,3′:3,4]pyrazolo[5,1-d][1,2,5]triazepine-10-carboxamide] | 0.001 to 0.1 µM |
| CN1OC(CNCC(F)F)Cn2nc3c(c2C1=O)CN(C(=O)Nc1ccc(F)c(C(F)(F)F)c1F)CC3 (single isomer, unassigned) [Compound 191_E1, (S*)—N-(2,4-difluoro-3-(trifluoromethyl)phenyl)-4-(((2,2-difluoroethyl)amino)methyl)-2-methyl-1-oxo-1,4,5,8,9,11-hexahydropyrido[4′,3′:3,4]pyrazolo[5,1-d][1,2,5]oxadiazepine-10(2H)-carboxamide] | 0.001 to 0.1 µM |
| CCC(O)C1=NN(C)C(=O)c2c3c(nn2C1)CCN(C(=O)Nc1ccc(F)c(Cl)c1)C3 (stereo not drawn) [Compound 229, N-(3-chloro-4-fluorophenyl)-4-(1-hydroxypropyl)-2-methyl-1-oxo-1,2,5,8,9,11-hexahydro-10H-pyrido[4′,3′:3,4]pyrazolo[5,1-d][1,2,5]triazepine-10-carboxamide] | 0.1 to 0.5 µM |
| CN(CC(F)F)C(=O)C1Cn2nc3c(c2C(=O)N(C)O1)CN(C(=O)Nc1ccc(F)c(C#N)c1F)CC3 (stereo not drawn) [Compound 161, N10-(3-cyano-2,4-difluorophenyl)-N4-(2,2-difluoroethyl)-N4,2-dimethyl-1-oxo-1,4,5,8,9,11-hexahydropyrido[4′,3′:3,4]pyrazolo[5,1-d][1,2,5]oxadiazepine-4,10(2H)-dicarboxamide] | 0.001 to 0.1 µM |
| C[C@@H]1Cc2nn3c(c2CN1C(=O)Nc1ccc(F)c(C#N)c1)C(=O)N(C)OCC3 [Compound 079, (R)—N-(3-cyano-4-fluorophenyl)-2,9-dimethyl-1-oxo-1,4,5,8,9,11-hexahydropyrido[4′,3′:3,4]pyrazolo[5,1-d][1,2,5]oxadiazepine-10(2H)-carboxamide] | 0.001 to 0.1 µM |
| CN1OC(CO)Cn2nc3c(c2C1=O)CN(C(=O)Nc1ccc(Cl)c(Cl)c1)CC3 (stereo not drawn) [Compound 012, N-(3,4-dichlorophenyl)-4-(hydroxymethyl)-2-methyl-1-oxo-1,4,5,8,9,11-hexahydropyrido[4′,3′:3,4]pyrazolo[5,1-d][1,2,5]oxadiazepine-10(2H)-carboxamide] | 0.001 to 0.1 µM |
| CNC(=O)C1Cn2nc3c(c2C(=O)N(C)O1)CN(C(=O)Nc1ccc(F)c(C#N)c1F)[C@H](C)C3 (single isomer, unassigned) [Compound 156_D1, (4S*,9R)—N10-(3-cyano-2,4-difluorophenyl)-N4,2,9-trimethyl-1-oxo-1,4,5,8,9,11-hexahydropyrido[4′,3′:3,4]pyrazolo[5,1-d][1,2,5]oxadiazepine-4,10(2H)-dicarboxamide] | > 1 µM |
| CC(=O)NCC1Cn2nc3c(c2C(=O)N(C)O1)CN(C(=O)Nc1cc(Cl)c(F)cc1F)CC3 (single isomer, unassigned) [Compound 173_E1, (S*)-4-(acetamidomethyl)-N-(5-chloro-2,4-difluorophenyl)-2-methyl-1-oxo-1,4,5,8,9,11-hexahydropyrido[4′,3′:3,4]pyrazolo[5,1-d][1,2,5]oxadiazepine-10(2H)-carboxamide] | 0.001 to 0.1 µM |
| CN1OC(COCC(F)F)Cn2nc3c(c2C1=O)CN(C(=O)Nc1ccc(F)c(C(F)(F)F)c1)CC3 (single isomer, unassigned) [Compound 212, (S*)-4-((2,2-difluoroethoxy)methyl)-N-(4-fluoro-3-(trifluoromethyl)phenyl)-2-methyl-1-oxo-1,4,5,8,9,11-hexahydropyrido[4′,3′:3,4]pyrazolo[5,1-d][1,2,5]oxadiazepine-10(2H)-carboxamide] | 0.001 to 0.1 µM |

— patent publication US10987359B2, “Oxadiazepinone derivatives and methods of treating hepatitis B infections” (priority 2016, dated 2021)
